US8426469B2, “Crystalline leukotriene B4” (LTB4 Sweden AB, priority 2006, dated 2013)
Entries after “also recorded” stand apart in the source; their conditions may differ.

How the values were obtained:
[1] = stability of leukotriene B4 as a function of pH; type: physicochemical; conditions: alkaline pH versus neutral or acidic pH
Excerpt: Accordingly, in a preferred embodiment, the composition according to the present invention comprises an alkaline reacting carrier. The expression “alkaline reacting carrier”, in the context of the present invention, is intended to include an otherwise inert, pharmaceutically acceptable substance (or substances), which creates an alkaline “micro-pH” between 8.2 and 14, especially between 8.5 and 12.5, such as between 8.5 and 11.5, most preferably between 9.5 and 11.5, such as about 9.5, 9.6, 9.7, 9.8, 9.9, 10.0, 10.1, 10.2, 10.3, 10.4, 10.5, 10.6, 10.7, 10.8, 10.9, 11.0, 11.1, 11.2, 11.3, 11.4, or 11.5, around each LTB4 particle when water is adsorbed to the particles of the mixture or when water is added in small amounts to the mixture. In another preferred embodiment, the alkaline “micro-pH” ranges between 8.0 and 9.0, between 8.5 and 9.5, between 9.0 and 10.0, or between 10.0 and 11.5. […]

[2] = solubility of LTB4 in various solvents; type: physicochemical; conditions: Table 1; the value is the solvent
Excerpt: Table 1 below summarizes the solubility of LTB4 in various solvents.

[3] = pH 7.0-7.6, stored at 2° C. to 25° C. (and above 25° C.); cited from earlier work

## CCCCC/C=C\C[C@@H](O)/C=C/C=C/C=C\[C@@H](O)CCCC(=O)O [LTB4, 5S,12R-dihydroxy-6,8,10,14(Z,E,E,Z)-eicosatetraenoic acid]
[1]
  stability depending on pH: more stable at alkaline pH than at neutral or acidic pH
[2]
  Slightly soluble or insoluble (solvent in which LTB4 is slightly soluble or insoluble; anti-solvent): Toluene; also recorded: Water; also recorded: Heptane
[3]
  stability of isotonic aqueous solution: stable for only short periods of time (weeks to months)
